# In patent US20070142317A1, “Topical composition for treatment of skin disorders” (QLT USA, Inc., priority 2003, published 2007):
# Several values for one entry are separate records, joined by “and”; a condition that tells them apart may be missing. Identical values can stand only once. Like-named read-outs stand apart in the source and are kept apart here.
# Assays:
# [1] = system: U937 monocytoid cells; experiment: TUNEL assay, dAd, adenosine and adenine dose ranging (Example 24); format: cell-based; conditions: for % FITC Shift / % PI Shift: 2 days
# Procedure: U937 monocytoid cells were cultured in the presence of dAd at various concentrations of dAd (0, 50, 75, 100, 250 and 1000 micromoles/liter). The cells were incubated in dAd for 2 days. At the end of the treatment period, the cells were harvested for analysis by a TUNEL assay, a flow-cytometry-based method to quantify the percentage of cells that have undergone apoptosis. The level of apoptosis expressed as “% FITC shift”. The level of cell cycle arrest is expressed as “% PI shift”. As a positive control, the cells were exposed to 5 mM camptothecin for 2 days.
# [2] = system: U937 monocytoid cells; experiment: TUNEL assay, dAd added at different times after dCF wash-out (Example 22); format: cell-based; conditions: 0 μM dCF + camptothecin positive control, time after wash-out 0 hr (5 mM printed elsewhere in the source)
# [3] = system: U937 monocytoid cells; experiment: as above; format: cell-based; conditions: 0 μM dCF + camptothecin positive control, time after wash-out 0 hr (5 mM printed elsewhere in the source); remark: listed apart in the source
# Procedure: At 0, 6, 24, and 48 hours, 50 μM dAd was added and the cells were incubated for an additional 2 days. At the end of the treatment period, the cells were harvested for analysis by a TUNEL assay, a flow-cytometry-based method to quantify the percentage of cells that have undergone apoptosis. The level of apoptosis is expressed as “% FITC shift”. As a positive control, the cells were exposed to 5 mM camptothecin for 2 days.
# [4] = system: U937 monocytoid cells; experiment: TUNEL apoptosis assay, sequential exposure to dCF then dAd (Example 21); format: cell-based; conditions: Camptothecin 5 uM, positive control
# Procedure: (§1) Thus, it is hypothesized that the sequential exposure of the cells to dCF, followed by deoxyadenosine (dAd) will lead to greater levels of apoptosis than dCF alone. […] The cells were then incubated in dAd for 2 more days. At the end of the treatment period, the cells were harvested for analysis by a TUNEL assay, a flow-cytometry-based method to quantify the percentage of cells that have undergone apoptosis. The level of apoptosis is expressed as “% FITC shift”. As a positive control, the cells were exposed to 5 mM camptothecin for 2 days.
# [5] = system: Jurkat T cells; experiment: as above; format: cell-based; conditions: Camptothecin 5 uM, positive control
# Procedure: as §1
# [6] = system: U-937 cells; experiment: Cytokine secretion by ELISA (Example 31); format: cell-based; conditions: for effect on suppressing the production of IL-6: 46 hours
# Procedure: (§2) In a search for a topical agent that can locally deplete levels of T-cells in the skin, apoptotic compounds were evaluated for their mechanisms of action. The ability that […] induce apoptosis by the same mechanisms was examined by cytokine secretion. […] Caspase-3 and cytokine (IL-2, IL-6, TNF, and IFN-γ) levels were determined and compared to controls at 23 and 46 hours. FdA was incorporated to evaluate the effect of the halogen group and Ara-C for its overlapping mechanisms of action. […] At the end of the treatment period, the cells were harvested and Caspase-3 induction was determined using a flow-cytometry-based method to quantify the percentage of cells that induced Caspase-3. The level of apoptosis is expressed as “% FITC shift”. Cytokine secretion (IL-2, IL-6, TNF, and IFN-γ) was measured at the same time by ELISA and is expressed in pg/mL. […]
# [7] = system: Jurkat cells; experiment: Cytokine secretion by ELISA (Example 31); format: cell-based
# Procedure: In a search for a topical agent that can locally deplete levels of T-cells in the skin, apoptotic compounds were evaluated for their mechanisms of action. The ability that […] induce apoptosis by the same mechanisms was examined by cytokine secretion. […] At the end of the treatment period, the cells were harvested and Caspase-3 induction was determined using a flow-cytometry-based method to quantify the percentage of cells that induced Caspase-3. The level of apoptosis is expressed as “% FITC shift”. Cytokine secretion (IL-2, IL-6, TNF, and IFN-γ) was measured at the same time by ELISA and is expressed in pg/mL.
# [8] = system: U937 monocytoid cells; experiment: TUNEL assay, simultaneous exposure to dCF and dAd (Example 22); format: cell-based; conditions: camptothecin positive control, 2 days (5 mM printed elsewhere in the source)
# Procedure: Methods Simultaneous Exposure—U937 monocytoid cells were cultured in the presence of 0, 1, 2.5, 10, 20, 50, 100, 150, 200, and 250 μM dAdo for 2 days. […] At the end of the treatment period, the cells were harvested for analysis by a TUNEL assay, a flow-cytometry-based method to quantify the percentage of cells that have undergone apoptosis. The level of apoptosis is expressed as “% FITC shift”. As a positive control, the cells were exposed to 5 mM camptothecin for 2 days.
# [9] = target: T1, ribonucleotide reductase (RNR) (Homo sapiens, UniProt P23921); conditions: cited from earlier work
# T1 sequence (P23921 1-792): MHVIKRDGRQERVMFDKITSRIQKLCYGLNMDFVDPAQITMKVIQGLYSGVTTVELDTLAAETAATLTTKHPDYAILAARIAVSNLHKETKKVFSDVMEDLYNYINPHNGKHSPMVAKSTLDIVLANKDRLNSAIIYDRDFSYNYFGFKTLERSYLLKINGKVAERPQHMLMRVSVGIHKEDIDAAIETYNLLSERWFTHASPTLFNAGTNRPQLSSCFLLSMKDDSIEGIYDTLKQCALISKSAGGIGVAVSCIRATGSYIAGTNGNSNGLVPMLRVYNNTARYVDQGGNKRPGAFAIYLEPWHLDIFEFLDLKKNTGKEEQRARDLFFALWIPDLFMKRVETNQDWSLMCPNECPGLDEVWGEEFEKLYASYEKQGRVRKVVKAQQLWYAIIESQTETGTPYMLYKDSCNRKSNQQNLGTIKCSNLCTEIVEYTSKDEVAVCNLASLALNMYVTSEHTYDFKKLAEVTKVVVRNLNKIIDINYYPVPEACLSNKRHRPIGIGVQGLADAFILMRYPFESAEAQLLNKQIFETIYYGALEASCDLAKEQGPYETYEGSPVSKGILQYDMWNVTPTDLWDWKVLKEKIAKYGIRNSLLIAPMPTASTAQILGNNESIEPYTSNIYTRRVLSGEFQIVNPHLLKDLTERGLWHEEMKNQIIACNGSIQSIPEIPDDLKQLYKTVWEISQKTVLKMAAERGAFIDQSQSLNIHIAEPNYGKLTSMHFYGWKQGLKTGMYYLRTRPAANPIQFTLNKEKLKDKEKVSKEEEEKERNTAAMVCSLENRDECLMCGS
# [10] = target: dCK (Homo sapiens, UniProt P27707); conditions: read-out: Km for dCK; cited from earlier work
# Chain of dCK (P27707 whole entry, species assumed): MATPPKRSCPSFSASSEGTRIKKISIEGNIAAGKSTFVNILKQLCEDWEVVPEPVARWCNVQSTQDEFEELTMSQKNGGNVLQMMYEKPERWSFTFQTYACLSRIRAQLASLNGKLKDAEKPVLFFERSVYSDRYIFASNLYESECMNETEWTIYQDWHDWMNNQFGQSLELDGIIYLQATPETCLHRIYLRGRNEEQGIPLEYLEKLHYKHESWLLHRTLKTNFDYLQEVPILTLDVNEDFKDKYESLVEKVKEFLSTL
# [11] = system: Jurkat cells; experiment: Caspase-3 induction by flow cytometry (Example 31); format: cell-based; conditions: drug 1 μM, PHA-activated cells
# Procedure: as §2
# [12] = system: U-937 cells; experiment: Caspase-3 induction by flow cytometry (Example 31); format: cell-based; conditions: drug 1 μM, LPS-activated cells
# Procedure: as §2
# [13] = systemic, deamination by CDA; cited from earlier work
# [14] = target: ADA (Homo sapiens, UniProt P00813); conditions: cited from earlier work
# Chain of ADA (P00813 whole entry, species assumed): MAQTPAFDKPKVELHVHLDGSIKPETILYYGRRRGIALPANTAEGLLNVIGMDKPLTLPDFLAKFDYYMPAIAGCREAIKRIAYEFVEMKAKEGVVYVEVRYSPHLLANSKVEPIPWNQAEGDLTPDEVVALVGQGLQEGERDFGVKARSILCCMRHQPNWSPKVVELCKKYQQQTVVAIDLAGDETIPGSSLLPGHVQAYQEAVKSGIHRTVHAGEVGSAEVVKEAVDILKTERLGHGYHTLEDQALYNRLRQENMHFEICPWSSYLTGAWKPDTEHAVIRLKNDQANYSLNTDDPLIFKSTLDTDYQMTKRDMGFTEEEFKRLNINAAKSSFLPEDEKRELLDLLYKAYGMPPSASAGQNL
# [15] = for systemic exposure per day: topical 1.0% (10 mg/g), 7% systemic absorption
# Source text: (§3) Systemic absorption is a concern, because of the potential for serious adverse events, such as lymphopenia and renal toxicity. At oncology doses, these adverse reactions are usually minimized, but the therapeutic index is narrow. Another factor that plays a role in the safety of the formulation is the amount of product administered each day. Approximately 4 grams, 12 grams, and 40 grams of a topical formulation are estimated to cover 10%, 30%, and 100% of the body surface area.
# as §3
# as §3, with “Calculations of safety margins have been performed, based upon this assumption and the known toxicity profile of F-Ara-A when administered IV for oncology indications. Systemic” for “Systemic”
# as §3
# [16] = 23 hr, drug 5 μM, positive control
# [17] = 46 hr, drug 5 μM, positive control
# [18] = Camptothecin 5 uM, positive control
# [19] = 23 hr, drug 1 μM, LPS-activated cells
# [20] = 46 hr, drug 1 μM, LPS-activated cells
smiles,measurement,setting,value
"Nc1[nH]cnc2ncnc1-2 [Adenine, 1H-Purin-6-amine]",effect on apoptosis or cell cycle,[1]; at 1000 uM,slight hint of an effect
same,% FITC Shift,"[1]; drug 50 uM, no dCF",0.4%
same,% PI Shift,"[1]; drug 50 uM, no dCF",2.0%
same,% FITC Shift,"[1]; drug 75 uM, no dCF",0.6%
same,% PI Shift,"[1]; drug 75 uM, no dCF",2.4%
same,% FITC Shift,"[1]; drug 100 uM, no dCF",0.3%
same,% PI Shift,"[1]; drug 100 uM, no dCF",2.5%
same,% FITC Shift,"[1]; drug 250 uM, no dCF",0.7%
same,% PI Shift,"[1]; drug 250 uM, no dCF",3.4%
same,% FITC Shift,"[1]; drug 1000 uM, no dCF",2.9%
same,% PI Shift,"[1]; drug 1000 uM, no dCF",9.5%
same,effect on apoptosis or cell cycle,[1]; up to 250 uM,little or no effect
"Nc1ncnc2c1ncn2[C@@H]1O[C@H](CO)[C@@H](O)[C@H]1O [Adenosine, 9-β-D-Ribofuranosyl-9H-purin-6-amine]",effect on apoptosis or cell cycle,[1]; at 1000 uM,slight hint of an effect
same,% FITC Shift,"[1]; drug 50 uM, no dCF",0.7%
same,% PI Shift,"[1]; drug 50 uM, no dCF",1.7%
same,% FITC Shift,"[1]; drug 75 uM, no dCF",0.6%
same,% PI Shift,"[1]; drug 75 uM, no dCF",2.1%
same,% FITC Shift,"[1]; drug 100 uM, no dCF",0.6%
same,% PI Shift,"[1]; drug 100 uM, no dCF",2.0%
same,% FITC Shift,"[1]; drug 250 uM, no dCF",0.6%
same,% PI Shift,"[1]; drug 250 uM, no dCF",1.9%
same,% FITC Shift,"[1]; drug 1000 uM, no dCF",2.9%
same,% PI Shift,"[1]; drug 1000 uM, no dCF",7.9%
same,effect on apoptosis or cell cycle,[1]; up to 250 uM,little or no effect
CC[C@@]1(O)C(=O)OCc2c1cc1n(c2=O)Cc2cc3ccccc3nc2-1 [Camptothecin],% PI Shift,[2],29.2%
same,% FITC Shift,[3],84.3%
same,% FITC Shift,[4],93.4%
same,% FITC Shift,[5],80.2%
same,Cytokine Secretion IL-6 pg/ml Mean of 3 Replicates,[6]; [16],0 pg/mL
same,Cytokine Secretion IL-6 pg/ml Mean of 3 Replicates,[6]; [17],0 pg/mL
same,Cytokine Secretion IL-2 pg/ml Mean of 3 Replicates,[7]; [16],0 pg/mL
same,Cytokine Secretion IL-2 pg/ml Mean of 3 Replicates,[7]; [17],0 pg/mL
same,% FITC Shift,[8],79.5%
same,% PI Shift,[8],43.4%
same,% FITC Shift,[1]; [18],72.8%
same,% PI Shift,[1]; [18],32.2%
"Nc1nc(Cl)nc2c1ncn2[C@H]1C[C@H](O)[C@@H](COP(=O)(O)OP(=O)(O)OP(=O)(O)O)O1 [CdATP, 2-chloro-2′-deoxyadenosine-5′-triphosphate]",IC50,[9],60 nM
Nc1nc(Cl)nc2c1ncn2[C@@H]1O[C@H](CO)[C@@H](O)[C@@H]1F [Clofarabine],Km,[10],5 µM
Nc1nc(F)nc2c1ncn2C1OC(COP(=O)(O)OP(=O)(O)OP(=O)(O)O)C(O)C1O (centres unmarked) [F-Ara-ATP],IC50,[9],~600 nM
"Nc1nc(F)nc2c1ncn2[C@H]1C[C@H](O)[C@@H](CO)O1 [FdA, 2-fluoro-2′-deoxyadenosine]",Cytokine Secretion IL-6 pg/ml Mean of 3 Replicates,[6]; [19],7 pg/mL
same,effect on suppressing the production of IL-6,[6]; drug 1 μM,little effect
same,Cytokine Secretion IL-6 pg/ml Mean of 3 Replicates,[6]; [20],7 pg/mL and 8 pg/mL
same,Caspase-3 Induction % FITC Shift - Mean of 3 Replicates,[11]; 23 hr,75%
same,Caspase-3 Induction % FITC Shift - Mean of 3 Replicates,[11]; 46 hr,95%
same,Caspase-3 Induction % FITC Shift - Mean of 3 Replicates,[12]; 23 hr,67%
same,Caspase-3 Induction % FITC Shift - Mean of 3 Replicates,[12]; 46 hr,51%
same,Cytokine Secretion IL-2 pg/ml Mean of 3 Replicates,"[7]; 23 hr, drug 1 μM, PHA-activated cells",41 pg/mL
same,Cytokine Secretion IL-2 pg/ml Mean of 3 Replicates,"[7]; 46 hr, drug 1 μM, PHA-activated cells",72 pg/mL
same,IL-2 concentration,"[7]; Jurkat cells activated by PHA, 46 hours, drug 1 μM",72 pg/mL
Nc1ccn([C@@H]2O[C@H](CO)[C@@H](O)C2(F)F)c(=O)n1 [Gemcitabine],half-life,[13],10 to 20 min
COc1nc(N)nc2c1ncn2[C@@H]1O[C@H](CO)[C@@H](O)[C@@H]1O [Nelarabine],Km to ADA relative to that of adenosine,[14],less than 1%
"Nc1ccn([C@@H]2O[C@H](CO)[C@@H](O)[C@@H]2O)c(=O)n1 [ara-C, Cytosine 1β-D-Arabinofuranoside]",Cytokine Secretion IL-6 pg/ml Mean of 3 Replicates,[6]; [19],7 pg/mL
same,effect on suppressing the production of IL-6,[6]; drug 1 μM,little effect
same,Cytokine Secretion IL-6 pg/ml Mean of 3 Replicates,[6]; [20],7 pg/mL
same,times safer than the oncology dose,[15],9643
same,systemic exposure per day,[15]; 10% BSA (4 grams),2.8 mg
same,systemic exposure per day,[15]; 30% BSA (12 grams),8.4 mg
same,systemic exposure per day,[15]; 100% BSA (40 grams),28 mg
Nc1ccn(C2OC(COP(=O)(O)OP(=O)(O)O)C(O)C2(F)F)c(=O)n1 (centres unmarked) [gemcitabine diphosphate],IC50,[9],200 nM
